Results: patent publication US7879795B2, “Enhancement of tigecycline potency using efflux pump inhibitors” (Mpex Pharmaceuticals, Inc., priority 2004, dated 2011)

Legend:
[1] = system: P. aeruginosa overexpressing (strain PAM1723) or lacking (PAM1626) efflux pumps; assay: Stability in P. aeruginosa cultures; assay type: in vitro ADME; settings: 50 μg/ml, PAM1723 and PAM1626
Procedure: Overnight cultures of two different strains of P. aeruginosa overexpressing (strain PAM1723) or lacking (PAM1626) efflux pumps were incubated with compounds 1 or 3 at 50 μg/ml for various times. Compounds were extracted using 4% TCA and analysed by LC/MC/MC.

[2] = system: P. aeruginosa, PAM1723, overexpressing the MexAB-OprM efflux pump; assay: Levofloxacin potentiation checkerboard assay (broth microdilution); assay type: cell-based; settings: for MPC8: EPI concentration necessary to increase susceptibility to levofloxacin eight-fold
Outline: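 Checkerboard of levofloxacin against efflux pump inhibitors (EPIs) in Mueller-Hinton broth (MHB), with the EPIs titrated down the rows. Plates were incubated 20 h at 35 °C; growth was read at 650 nm and also scored visually.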

[3] = In vitro stability in rat serum and tissue homogenates (LC/MS/MS); assay type: in vitro ADME; settings: for stability in tissue homogenates at pH lowered to about 6 versus no pH change: rat kidney, liver, lung homogenates, acetic acid
[4] = system: strains of Klebsiella, Enterobacter and Citrobacter; assay: Potentiation of tigecycline against enterobacteria with decreased susceptibility to tigecycline; assay type: cell-based; settings: in words
Procedure: To further characterize the clinical potential of tigecycline/EPI combinations, the microbiological activity of tigecycline in combination with compound 21 was investigated using clinical isolates of P. aeruginosa and other gram-negative bacteria. In several experiments, described below, the impact of a fixed concentration of compound 21 (2.5 μg/ml) on susceptibility to tigecycline was determined.
The impact of compound 21 on the activity of tigecycline against representative members of Enterobacteriacaea was also tested.

[5] = system: laboratory strains of P. aeruginosa; assay: Tigecycline susceptibility of laboratory strains of P. aeruginosa over-expressing or lacking efflux pumps; assay type: cell-based
Procedure: The ability of compound 21 to increase susceptibility to tigecycline was also assessed. The tigecycline potentiating activity of compound 21 was assessed by the checkerboard assay (Antimicrobial Combinations, Antibiotics in Laboratory Medicine, ed. Victor Lorian, M.D., Fourth edition, 1996, pp 333-338, which is incorporated herein by reference in its entirety) using a broth micro-dilution method performed as recommended by the CSLI (Clinical and Laboratory Standards Institute, formerly NCCLS) guidelines (National Committee for Clinical Laboratory Standards 2003. Methods for Dilution Antimicrobial Susceptibility Tests for Bacteria That Grow Aerobically—Sixth Edition; Approved Standard. NCCLS Document M7-A6, Vol 20 No. 2). In this assay, multiple dilutions of the two drugs, compound 21 and tigecycline, were tested alone and in combination, at concentrations equal to, above and below their respective minimal inhibitory concentrations (MICs). […] The stock solution was further diluted in Mueller Hinton Broth (MHB). Stock solutions were stored at −80° C.
The checkerboard assay was performed in microtiter plates. Tigecycline was diluted in the x axis, each column containing a single concentration of tigecycline. Compound 21 was diluted in the y axis, each row containing an equal concentration of the EPI. […] The assay was performed in MHB with a final bacterial inoculum of 5×10^5 CFU/ml (from an early-log phase culture). The microtiter plates were incubated for 20 hours at 35° C. and then read using a microtiter plate reader (Molecular Devices) at 650 nm, as well as by visual observation using a microtiter plate-reading mirror.

[6] = Solubility in water (stock solutions); settings: stock solutions 10 mg/ml
[7] = EPI 0 μg/ml (levofloxacin alone)

Row | Structure (SMILES) | stability in cultures of tested bacterial strains [1] | Antibiotic (levofloxacin) MIC in the presence of EPI [2, 7] [µg/mL] | Antibiotic (levofloxacin) MIC in the presence of EPI ([2]; EPI 1.25 μg/ml) [µg/mL] | Antibiotic (levofloxacin) MIC in the presence of EPI ([2]; EPI 5 μg/ml) [µg/mL] | Antibiotic (levofloxacin) MIC in the presence of EPI ([2]; EPI 10 μg/ml) [µg/mL] | Antibiotic (levofloxacin) MIC in the presence of EPI ([2]; EPI 20 μg/ml) [µg/mL] | Antibiotic (levofloxacin) MIC in the presence of EPI ([2]; EPI 40 μg/ml) [µg/mL] | Antibiotic (levofloxacin) MIC in the presence of EPI ([2]; EPI 80 μg/ml) [µg/mL] | Antibiotic (levofloxacin) MIC in the presence of EPI ([2]; EPI […]) [µg/mL] | MPC8 [2] [µg/mL] | stability in supernatant of rat kidney tissue homogenates ([3]; in words) | stability in tissue homogenates at pH lowered to about 6 versus no pH change [3] | other results
1 | NCCC[C@@H](N)C(=O)N[C@H](CCc1ccccc1)C(=O)Nc1cnc2ccccc2c1 [Compound 1, 2-(R),5-Diamino-pentanoic acid [3-phenyl-1-(R)-(quinolin-3-ylcarbamoyl)-propyl]-amide] | stable | 2 | 2 | 0.5 | 0.06 | 0.03 | 0.015 | 0.008 | 1 | 10 | neither compound 1 nor compound 4 show any instability | essentially unchanged | compound left after 16 hrs of incubation ([3]; all of the tissues tested (rat serum, tissue homogenates), 37° C., 2 μg/ml): 70-80%; stability in all of the tissues tested ([3]; rat, in words): highly stable
2 | NCCC[C@H](N)C(=O)N[C@H](CCc1ccccc1)C(=O)Nc1cnc2ccccc2c1 [Compound 3, 2-(S),5-Diamino-pentanoic acid [3-phenyl-1-(R)-(quinolin-3-ylcarbamoyl)-propyl]-amide] | stable | 2 | 2 | 0.25 | 0.03 | 0.015 | 0.015 | 0.015 | 1 | 10 | supernatant instability was selective to compound 3 | degraded faster | stability in supernatant versus pellet of kidney tissue homogenates ([3]; after 5 min. centrifugation): Greater instability; stability in rat serum ([3]; in words): at least as stable as 1; stability in kidney and liver ([3]; rat tissue homogenates, in words): more unstable than 1
3 | NCCC[C@H](N)C(=O)N[C@H](Cc1ccc(C(F)(F)F)cc1)C(=O)Nc1cnc2ccccc2c1 [Compound 21, 2-(S),5-Diamino-pentanoic acid [1-(R)-(quinolin-3-ylcarbamoyl)-2-(4-trifluoromethyl-phenyl)-ethyl]amide] |  |  |  |  |  |  |  |  |  |  |  |  | potentiation of tigecycline against strains with decreased susceptibility [4]: potentiated tigecycline; effect on activity of tigecycline against strains expressing efflux pumps ([5]; in words): increases activity to tigecycline; concentration required to completely inhibit the efflux pumps ([5]; tigecycline checkerboard): 2.5 µg/mL; solubility in water [6]: readily soluble in water
